Test results: patent US12702689B2, “Anti-inflammatory compositions, and uses thereof” (P.L. THOMAS & CO., INC., priority 2022, dated 2026)

How the values were obtained:
gut microbiome = assay: Gut microbiome profiling of fecal pellets by 16S rRNA sequencing; format: in vivo, BALB/cJ female mice
Source text: Allergic airway phenotype was induced by using an ovalbumin (OVA, hen egg) sensitization and challenge model as previously described with modifications [Beigelman, A. et al. Azithromycin attenuates airway inflammation in a noninfectious mouse model of allergic asthma. Chest 136, 498-506 (2009)]. Briefly (FIG. 1), two groups of mice (OVA control and OVA+AKBA) were sensitized with intraperitoneal ovalbumin plus alum on days 0 and 7, challenged for 3 days (day 14 to day 17) via nebulized OVA at 1% in PBS for 30 mins, and harvested 48 hr after final challenge. Supplementation groups (OVA+AKBA) were given 100 mg/kg of water soluble AKBA (pH 7) (PLT Health Solutions, Morristown, NJ, US) in autoclaved mouse water, via gavage, every other day for 10 days and then every day for the remainder of the experiment (9 days). OVA control and naïve mouse continued to receive normal autoclaved mouse water. Mice were weighted at the beginning and end of the experiment. Experiments involving AKBA were conducted twice, with the first group containing 5 mice per group and the second containing 15 mice per group (5 per group for naive). Experiment procedures were identical, and results were pooled for n=20 (n=5 for naive). Animal protocol 102063-0522 was approved by the University of Connecticut Health IACUC board. Experiments were repeated, as stated above, with oral gavages of B. pseudolongum culture in place of AKBA supplementation. Groups were designated as OVA control (n=10), OVA+B. pseudolongum (n=10) and naïve (n=5). OVA+B. pseudolongum groups were given 10^8 CFU B. pseudolongum in culture medium via gavage, every other day for 10 days and then every day for the remainder of the experiment (9 days). Fresh fecal pellets were collected upon defecation and stored in sterile RNA-/DNA-/RNAse-/DNAse-free microcentrifuge tubes at the beginning and end of experiment (FIG. 1). Collected pellets were placed at −80° C. for storage following collection. DNA from pellets were extracted using the PowerSoil DNA Isolation Kit (Qiagen, Hilden, Germany) according to the manufacturer's protocol. Amplicon library preparation and V4 region of 16S rRNA gene sequencing were performed at Illumina HiSeq 4000 (Illumina, CA, US) platform. Raw 16S rRNA sequences (150-bp paired-end reads) were initially processed by BaseSpace software (Illumina, CA, US). One mismatch in primer and zero mismatch in barcodes were applied to sample deconvolution. Deconvoluted sequences were further processed using the DADA2 data processing pipeline with default parameters to obtain amplicon sequence variants (ASVs). Final taxonomic assignment was conducted using RDP-classifier (v2.11) with 0.5 confidence value as cut-off. Reads with <0.5 confidence of classification was “unclassified” at a given taxonomical level. ASV counts were converted to relative abundance and agglomerated at the phylum and genus levels using the Phyloseq R package to visualize the microbiome composition in a stacked bar plot. […] Sample reads were rarefied to 10,000 reads to account for uneven sampling depth. Alpha diversity was determined with the richness and Shannon diversity metrics at the ASV level. Wilcoxon sum rank test was performed to compare alpha diversity of stool microbiome between asthma control and AKBA treated mice at day 0 and day 19. Beta diversity was visualized by principal component analysis (PCA). DESeq2, with an adjusted p value<0.05, was used for the differential taxa analysis. All plots were created with “ggplot2” and all analyses were conducted in RStudio version 4.1.0.

[1] = tested on: gut microbiome (Bifidobacterium); conditions: healthy mice; cited from earlier work
[2] = tested on: airway reactivity to acetyl-β-methacholine chloride; assay: Airway hyperresponsiveness: total respiratory system resistance (Rrs) to methacholine, flexiVent; format: in vivo, BALB/cJ female mice; conditions: for total respiratory system resistance (Rrs) in response to methacholine: OVA+AKBA mice
Source text: Allergic airway phenotype was induced by using an ovalbumin (OVA, hen egg) sensitization and challenge model as previously described with modifications [Beigelman, A. et al. Azithromycin attenuates airway inflammation in a noninfectious mouse model of allergic asthma. Chest 136, 498-506 (2009)]. Briefly (FIG. 1), two groups of mice (OVA control and OVA+AKBA) were sensitized with intraperitoneal ovalbumin plus alum on days 0 and 7, challenged for 3 days (day 14 to day 17) via nebulized OVA at 1% in PBS for 30 mins, and harvested 48 hr after final challenge. Supplementation groups (OVA+AKBA) were given 100 mg/kg of water soluble AKBA (pH 7) (PLT Health Solutions, Morristown, NJ, US) in autoclaved mouse water, via gavage, every other day for 10 days and then every day for the remainder of the experiment (9 days). OVA control and naïve mouse continued to receive normal autoclaved mouse water. Mice were weighted at the beginning and end of the experiment. Experiments involving AKBA were conducted twice, with the first group containing 5 mice per group and the second containing 15 mice per group (5 per group for naive). Experiment procedures were identical, and results were pooled for n=20 (n=5 for naive). Animal protocol 102063-0522 was approved by the University of Connecticut Health IACUC board.
Airway reactivity was assessed based on total respiratory system resistance (Rrs) response to increasing doses (0-100 mg/ml) of acetyl-β-methacholine chloride (Sigma-Aldrich, St. Louis, MO). Mice were […] (150 mg/kg ketamine and 10 mg/kg xylazine), underwent tracheostomies and were mechanically ventilated using the flexiVent system (SCIREQ, Montreal, CA). Airway reactivity was determined by assessing forced oscillatory mechanics every 10 s for 4 min following each methacholine challenge.

[3] = tested on: gut microbiota including Akkermansia; Bifidobacteria; conditions: in vitro; cited from earlier work
[4] = AKBA treated mice, baseline vs endpoint, DESeq p<0.05

Compound: CC(=O)O[C@@H]1CC[C@@]2(C)[C@@H](CC[C@]3(C)[C@@H]2C(=O)C=C2[C@@H]4[C@@H](C)[C@H](C)CC[C@]4(C)CC[C@]23C)[C@@]1(C)C(=O)O [AKBA, 3-O-acetyl-11-keto-b-boswellic acid]
- change in Hyphomicrobium, Solirubrobacter and Steroidobacter (gut microbiome; [4]): decreases
- change in Lactiplantibacillus, Lacticaseibacillus and Turicibacter (gut microbiome; [4]): increases
- overall richness and Shannon diversity of gut microbiome, baseline to endpoint (gut microbiome; OVA+AKBA group, 100 mg/kg AKBA): maintained
- Bifidobacterium increase, fold change (gut microbiome; OVA+AKBA group, baseline to endpoint, Wilcoxon p=0.07 vs OVA control): 15.94±15.84 fold
- the 24 genera decreased in OVA control mice (Table 1): decreased in treated group (gut microbiome; OVA+AKBA group, baseline vs end point): None
- relative abundances of Actinobacteria phyla and Bifidobacterium genus vs OVA control mice (gut microbiome; OVA+AKBA mice): significantly higher
- relative abundances of Bifidobacterium [1]: increases
- total respiratory system resistance (Rrs) in response to methacholine ([2]; methacholine 12.5 mg, p=0.02 vs OVA control): 2.38±0.55
- total respiratory system resistance (Rrs) in response to methacholine ([2]; methacholine 25 mg, p=0.04 vs OVA control): 3.56±1.25
- difference in Rrs between OVA control and OVA+AKBA ([2]; higher methacholine concentrations (above 25 mg)): No significant difference
- difference in Rrs between all three groups ([2]; methacholine 0 mg/mL, ANOVA p=0.341): No significant difference
- effect on certain gut microbiota including Akkermansia [3]: selectively inhibited
- feeding effect on Bifidobacteria [3]: no direct feeding effect
